Assays:
Format in all cases: cell-based
Settings in all cases: third passage, control = 5 μg/mL human holo-transferrin, duplicate cultures
CHO cells = experiment: Growth of CHO cells in transferrin-free CD CHO medium with metal binding compounds
Method: The ability of metal binding compounds to support cellular growth in the absence of transferrin was evaluated using CHO cells maintained in CD CHO medium (Life Technologies, Rockville, Md., the formulation of which is described in WO 98/08934). Stock cultures containing 5 μg/mL human holo-transferrin were prepared in CD CHO medium. For metal binding compound evaluation, CHO cells were established in 125 mL shaker flasks at an initial viable seeding density of 1×10^5 cells/mL in a final volume of 20 mL. All cultures were maintained at 37° C. in humidified air containing 8% CO2. To eliminate transferrin carry-over effects, cells were subcultured at 4 day intervals for a total of three passages. Positive control cultures contained 5 μg/mL human holo-transferrin while negative control cultures were established in the absence of either transferrin or metal binding compound. Metal binding compound stocks were prepared at 0.1M-0.2M in ddH2O and solubilized when necessary using 5N NaOH or HCl. Iron complexes were established using 0.2M metal binding compound and iron stocks mixed 1:1 (v/v) and incubated for 5-10 minutes at 22° C. All solutions containing metal binding compounds were filter sterilized using a 0.22 μm Millex-GV filter prior to addition to transferrin and serum-free media.
(§1) In most cases, metal binding compounds were evaluated either alone or in combination with ferric chloride or ferrous sulfate at 25 μM, 50 μM and 100 μM. Values in the table represent the mean percentage of control growth for duplicate cultures determined at the third passage.
The ability of various metal binding compounds to substitute for transferrin in the culture of CHO cells was determined. When added to the medium formulation un-complexed, the metal binding compound is listed alone, when added as a complex with a transition metal, the source of the transition metal is listed with the metal binding compound.

293 cells = experiment: Growth of 293 cells in transferrin-free 293 SFM with metal binding compounds
Method: Semi-confluent adherent cultures of 293 Cells (ATCC, CRL 1573) are readily adapted to suspension culture. The cells are first detached with a solution of Trypsin-EDTA (0.05% Trypsin, 0.53 mM Na4EDTA), and then resuspended in conventional medium supplemented with 10% FBS to inhibit the trypsin. The resuspended cells are centrifuged at 200×g for five minutes. The cell pellet is resuspended in 293 SFM (available from Life Technologies, Rockville, Md.) the formulation of which is described in WO 98/08934 which is specifically incorporated herein by reference. Alternatively, the cells may be detached with Versene (Na4EDTA, 0.53 mM) and resuspended in 293 SFM.
The initial seeding density of the 293 cells after conversion to suspension culture is 1×10^6 cells/mL. The cells are shaken on a rotary shaker at 150 rpm in a 37° C. incubator equilibrated with 8% CO2-92% air. When the cells reach a density of 1.5×10^6 cells/mL they are diluted with 293 SFM to a density of 3.0×10^5 cells/mL. Because 293 cells have a tendency to aggregate, the cells may be vortexed vigorously for approximately 45 seconds to obtain a predominantly single cell suspension at the time of passaging and counting. After several passages in suspension culture, the maximum achievable density may be determined.
The ability of metal binding compounds to support cellular growth was evaluated using 293 cells maintained in 293 SFM (Life Technologies, Rockville, Md.) without transferrin or metal binding compound. Stock cultures containing 5 μg/mL human holo-transferrin were prepared in 293 SFM. For metal binding compound evaluation, 293 cells were established in 125 mL shaker flasks at an initial viable seeding density of 2×10^5 cells/mL in a final volume of 20 mL. All cultures were maintained at 37° C. in humidified air containing 8% CO2. To eliminate transferrin carry-over effects, cells were subcultured at 4 day intervals for a total of three passages. At each subculturing, cells were seeded at a density of 2×10^5 cells/mL. Positive control cultures contained 5 μg/mL human holo-transferrin while negative control cultures were established in the absence of either transferrin or metal binding compound. Metal binding compound stocks were prepared at 0.1M-0.2M in ddH2O and solubilized when necessary using 5N NaOH or HCl. Iron complexes were established using 0.2M metal binding compound and iron stocks mixed 1:1 (v/v) and incubated for 5-10 minutes at 22° C. All solutions containing metal binding compounds were filter sterilized using a 0.22 μm Millex-GV filter prior to addition to transferrin and serum-free media.
as §1, with “μM. When used in combination, the metal binding compounds were used in equimolar concentration with iron ions.” for “μM.”
(§2) When added to the medium formulation un-complexed, the metal binding compound is listed alone, when added as a complex with a transition metal, the source of the transition metal is listed with the metal binding compound.

Sp2/0 cells = experiment: Growth of Sp2/0 cells in transferrin-free CD Hybridoma medium with metal binding compounds
Method: The ability of iron metal binding compounds to support cellular growth in the absence of transferrin was evaluated using Sp2/0 cells maintained in CD Hybridoma medium (Life Technologies, Rockville, Md.). Stock cultures containing 5 μg/mL human holo-transferrin were prepared in CD Hybridoma medium. For metal binding compound evaluation, Sp2/0 cells were established at an initial viable cell density of 0.5×10^5 cells/mL in stationary culture using 75 cm^2 tissue culture flasks in a final volume of 20 mL. All cultures were maintained at 37° C. in humidified air containing 8% CO2. To eliminate transferrin carry-over effects, cells were subcultured at the same seeding density at 4 day intervals for a total of three passages. Positive control cultures contained 5 μg/mL human holotransferrin while negative control cultures were established in the absence of either transferrin or metal binding compound. Metal binding compound stocks were prepared at 0.1M-0.2M in ddH2O and solubilized when necessary using 5N NaOH or HCl. Iron complexes were established using 0.2M metal binding compound and iron stocks mixed 1:1 (v/v) and incubated for 5-10 minutes at 22° C. All solutions containing metal binding compounds were filter sterilized using a 0.22 μm Millex-GV filter prior to addition to transferrin and serum-free media.
as §1, §2

Molecule | mean percentage of control growth (CHO cells; 25 μM) [%] | mean percentage of control growth (CHO cells; 50 μM) [%] | mean percentage of control growth (CHO cells; 100 μM) [%] | mean percentage of control growth (293 cells; 25 μM) [%] | mean percentage of control growth (293 cells; 50 μM) [%] | mean percentage of control growth (293 cells; 100 μM) [%] | mean percentage of control growth (Sp2/0 cells; 25 μM) | mean percentage of control growth (Sp2/0 cells; 50 μM) [%] | mean percentage of control growth (Sp2/0 cells; 100 μM) [%]
O=C(O)CN(CCN(CC(=O)O)CC(=O)O)CCN(CC(=O)O)CC(=O)O.O=S(=O)([O-])[O-].[Fe+2] [Diethylenetriamine Penta-Acetic Acid · Ferrous Sulfate] | 135 | 137 | 147 | 77 | 107 | 85 | 54% | 90 | 91
O=S(=O)([O-])[O-].[Fe+2] [Ferrous Sulfate, reference compound] | 88 | 79 | 38 | 71 | 60 | 41 | 91% | 103 | 94
O=C(O)c1ccccn1.[Cl][Fe]([Cl])[Cl] [2-Pyridinecarboxylic Acid · Ferric Chloride] | 88 | 89 | 100 | – | – | – | 0% | 30 | 48
NC(CC(=O)O)C(=O)O.[Cl][Fe]([Cl])[Cl] (stereo not drawn) [Aspartic Acid · Ferric Chloride] | 77 | 89 | 112 | 81 | 86 | 100 | – | – | –
Ferrous Gluconate · Ascorbic Acid Phosphate | 91 | 61 | 28 | 86 | 109 | 101 | 92% | 94 | 93
CCc1occc(=O)c1O [2-Ethyl-3-Hydroxy-4-Pyrone] | 9 | 60 | 113 | 59 | 120 | 126 | 0% | 75 | 116
OC[C@@H](O)[C@@H](O)[C@H](O)[C@@H](O)CO.[Cl][Fe]([Cl])[Cl] [Sorbitol · Ferric Chloride] | 100 | 107 | 112 | – | – | – | 94% | 55 | 60
O=C(O)c1ccc[n+]([O-])c1.[Cl][Fe]([Cl])[Cl] [Nicotinic Acid-N-Oxide · Ferric Chloride] | 60 | 84 | 105 | 104 | 80 | 79 | – | – | –
Cc1ncc(CO)c(C(=O)O)c1O.[Cl][Fe]([Cl])[Cl] [4-Pyridoxic Acid · Ferric Chloride] | 55 | 63 | 100 | 109 | 85 | 99 | 40% | 73 | 76
O=c1cc(CO)occ1O [Kojic Acid] | 0 | 0 | 0 | – | – | – | 0% | 0 | 0
NC(CS)C(=O)O.O=S(=O)([O-])[O-].[Fe+2] (stereo not drawn) [Cysteine · Ferrous Sulfate] | 83 | 64 | 45 | – | – | – | 85? % | 79 | 67
[Cl][Fe]([Cl])[Cl].[O-][n+]1cccc(O)c1 [3-Hydroxypyridine-N-Oxide · Ferric Chloride] | 77 | 66 | 101 | 77 | 72 | 81 | 55% | 54 | 57
[Cl][Fe]([Cl])[Cl] [Ferric Chloride, reference compound] | 56 | 85 | 101 | 87 | 91 | 109 | 55% | 73 | 74
O=c1cc(CO)occ1O.[Cl][Fe]([Cl])[Cl] [Kojic Acid · Ferric Chloride] | 89 | 88 | 85 | – | – | – | 0% | 0 | 0
[Cl][Fe]([Cl])[Cl].c1ccc(Nc2ccccn2)nc1 [2,2-Dipyridylamine · Ferric Chloride] | 40 | 48 | 65 | 118 | 96 | 101 | – | – | –
